# Data: US11690810B2, “Combination treatment of bacterial infection” (The Chinese University of Hong Kong, priority 2018, dated 2023)
# Like-named read-outs stand apart in the source and are kept apart here.
# How the values were obtained:
# [1] = system: internalization of MRSA strain JE-2 by HaCat keratinocytes; test: Internalization of S. aureus by HaCaT keratinocytes; assay type: cell-based, Staphylococcus aureus
# [2] = system: adherence of MRSA strain JE-2 to fibrinogen; test: Fibrinogen-binding adherence assay (crystal violet); assay type: cell-based, Staphylococcus aureus; details: varying concentrations
# [3] = system: human peripheral blood mononuclear cells (PBMC); test: XTT cytotoxicity testing; assay type: cell-based; details: 2-64 μg/ml, vs drug free control
# Method: (§1) The plates were maintained in a 37° C. incubator.
# The cytotoxicity of kuraridin and its analogues were determined by the sodium 3′-[1-(phenylaminocarbonyl)-3,4-tetrazolium]-bis (4-methoxy-6-nitro) benzene sulfonic acid hydrate (XTT) assay.
# Serial dilutions of the compounds ranging 2-64 μg/ml were incubated with PBMCs at 37° C. for 72 hrs.
# [4] = system: NorA overexpressed S. aureus; details: ECG at 20 μg/ml; norfloxacin-resistant S. aureus overexpressing NorA (16); cited from earlier work
# [5] = system: S. aureus SA-RN4220-pUL5054 (RN4220); test: MIC and checkerboard (FIC) assay
# [6] = system: Human Mammary Epithelial Cell (HMEC); test: XTT cytotoxicity testing; assay type: cell-based; details: 2-64 μg/ml, vs drug free control
# Method: as §1
# [7] = system: panel of laboratory MRSA strains; test: MIC and combination tests, panel of laboratory strains
# [8] = system: HA MRSA W232; test: MIC and checkerboard (FIC) assay; details: for FIC / MIC combine / MIC alone: W232
# [9] = system: HA MRSA W235; test: MIC and checkerboard (FIC) assay; details: for FIC / MIC combine: ECG with Kur
# [10] = system: CA MRSA W47; test: MIC and checkerboard (FIC) assay; details: for FIC / MIC combine / MIC alone: W47
# [11] = system: bacterial aggregation of MRSA JE-2; test: Aggregation assay of MRSA JE-2; assay type: cell-based, Staphylococcus aureus; details: JE-2; varying concentrations
# [12] = system: S. aureus SA-APH2″-AAC6′ (APH2), resistant to gentamicin; test: MIC and checkerboard (FIC) assay
# [13] = system: HA MRSA W231; details: ECG+Kur+Van
# [14] = system: CA-MRSA strain ST30; test: MIC and checkerboard (FIC) assay; assay type: cell-based, Staphylococcus aureus; details: for FIC / MIC combine / MIC alone: ST30
# [15] = system: S. aureus ATCC25923 (methicillin sensitive); details: ATCC 25293; ECG with Kur
# [16] = system: S. aureus SA-APH3′ (APH3), resistant to kanamycin; test: MIC and checkerboard (FIC) assay
# [17] = system: cytokines production of human macrophages stimulated with PGN or SEB; assay type: cell-based
# [18] = system: CA MRSA W106; test: MIC and checkerboard (FIC) assay; details: for FIC / MIC combine: ECG with Kur
# [19] = Solubility; details: saline or isotonic
# [20] = system: cytokines production of human PBMC stimulated with PGN or SEB; assay type: cell-based
# [21] = system: S. aureus SA-1199B (NorA efflux pump overexpressed); test: MIC and checkerboard (FIC) assay; details: for FIC / MIC combine: 1199B; for MIC: read-out: MIC alone, 1199B
# [22] = system: adherence of MRSA strain JE-2 to HaCat keratinocytes; test: Bacterial adherence to HaCaT keratinocytes; assay type: cell-based, Staphylococcus aureus
# [23] = system: CA MRSA W113; test: MIC and checkerboard (FIC) assay; details: for FIC / MIC combine: ECG with Kur
# [24] = Staphylococcus aureus, read-out: MIC 99.9
# [25] = Staphylococcus aureus, read-out: MIC alone
# [26] = Staphylococcus aureus, MRSA, read-out: MIC alone
# [27] = APH2″-AAC6′, ECG with WQD-169 (Kuraridin)
smiles,measurement,setting,value
"O=C(O[C@@H]1Cc2c(O)cc(O)cc2O[C@@H]1c1ccc(O)c(O)c1)c1cc(O)c(O)c(O)c1 [ECG, epicatechin gallate]",percentage of internalized bacteria by HaCaT cells,[1]; ECG 4 μg/ml,62.2±2.7%
same,percentage of internalized bacteria by HaCaT cells,[1]; ECG 8 μg/ml,62.8±10.5%
same,percentage of internalized bacteria by HaCaT cells,[1]; ECG 16 μg/ml,53.7±6.3%
same,percentage of internalized bacteria by HaCaT cells,[1]; ECG 32 μg/ml,42.2±8.9%
same,percentage of internalized bacteria by HaCaT cells,[1]; ECG 64 μg/ml,34.7±4.5%
same,fibrinogen-binding adherence,[2],dose-dependent reduction of adherence
same,Cellular toxicity (XTT assay),[3],not toxic
same,potentiation of the activity of norfloxacin,[4],four-fold potentiation
same,FIC,"[5]; RN4220, Kuraridin with ECG",0.01
same,MIC combine,"[5]; RN4220, Kuraridin with ECG",8 µg/mL
same,MIC90,[5]; Staphylococcus aureus,8 µg/mL
same,MIC99,[5]; [24],> 512 µg/mL
same,MIC,[5]; [25],512 µg/mL
same,Cellular toxicity (XTT assay),[6],not toxic
same,MIC90,"[7]; Staphylococcus aureus, MRSA",4 to 16 µg/mL
same,concentration for 99.9% inhibition,[7]; panel of laboratory strains,> 512 µg/mL
same,MIC,[8]; [26],512 µg/mL
same,FIC,[8]; ECG with Kur,0.008
same,MIC combine,[8]; ECG with Kur,4 µg/mL
same,FIC,[8]; ECG+Kur+Van,0.03
same,MIC combine,[8]; ECG+Kur+Van,8 µg/mL
same,MIC alone,[8]; Table 5,512 µg/mL
same,MIC,[9]; [26],512 µg/mL
same,FIC,[9]; W235,0.002
same,MIC combine,[9]; W235,1 µg/mL
same,MIC,[10]; [26],512 µg/mL
same,FIC,[10]; ECG with Kur,0.004
same,MIC combine,[10]; ECG with Kur,2 µg/mL
same,FIC,[10]; ECG+Kur+Van,0.0004
same,MIC combine,[10]; ECG+Kur+Van,0.25 µg/mL
same,MIC alone,[10]; Table 5,512 µg/mL
same,bacterial aggregation,[11],No significant reduction
same,MIC alone,[12]; APH2 (gentamicin resistant),512 µg/mL
same,FIC,"[12]; APH2, ECG+Kur+Gen",0.0005
same,MIC combine,"[12]; APH2, ECG+Kur+Gen",0.25 µg/mL
same,FIC,"[12]; APH2, ECG+Kur, no Gen",0.0009
same,MIC combine,"[12]; APH2, ECG+Kur, no Gen",0.5 µg/mL
same,FIC,"[12]; APH2, Kuraridin with ECG",0.0009
same,MIC combine,"[12]; APH2, Kuraridin with ECG",0.5 µg/mL
same,FIC,"[12]; APH2″-AAC6′, ECG with WQD-164",0.001
same,MIC combine,"[12]; APH2″-AAC6′, ECG with WQD-164",1 µg/mL
same,FIC,"[12]; APH2″-AAC6′, ECG with WQD-165",0.0009
same,MIC combine,"[12]; APH2″-AAC6′, ECG with WQD-165",0.5 µg/mL
same,FIC,[12]; [27],0.007
same,MIC combine,[12]; [27],4 µg/mL
same,FIC,"[12]; APH2″-AAC6′, ECG with WQD-175",0.0009
same,MIC combine,"[12]; APH2″-AAC6′, ECG with WQD-175",0.5 µg/mL
same,MIC90,[12]; Staphylococcus aureus,8 µg/mL
same,MIC99,[12]; [24],> 512 µg/mL
same,MIC,[12]; [25],512 µg/mL
same,MIC alone,"[12]; Strain APH2″-AAC6′, Table 9",512 µg/mL
same,FIC,[13],0.0004
same,MIC combine,[13],0.25 µg/mL
same,FIC,[14]; ECG with Kur,0.0004
same,MIC combine,[14]; ECG with Kur,0.25 µg/mL
same,FIC,[14]; ECG+Kur+Van,0.0004
same,MIC combine,[14]; ECG+Kur+Van,0.25 µg/mL
same,MIC alone,[14]; Table 5,512 µg/mL
same,MIC,[14]; [26],512 µg/mL
same,FIC,[15],0.008
same,MIC combine,[15],4 µg/mL
same,FIC,"[16]; APH3, Kuraridin with ECG",0.0009
same,MIC combine,"[16]; APH3, Kuraridin with ECG",0.5 µg/mL
same,MIC90,[16]; Staphylococcus aureus,4 µg/mL
same,MIC99,[16]; [24],> 512 µg/mL
same,MIC,[16]; [25],512 µg/mL
same,IL-12 production,[17],could suppress only IL-12
same,MIC,[18]; [26],512 µg/mL
same,FIC,[18]; W106,0.002
same,MIC combine,[18]; W106,1 µg/mL
same,solubility,[19],20 mg/mL
same,IL-10 and IL-12 production,[20],mildly suppressed
same,TNF-α production,[20],no significant effects
same,FIC,[21]; Baicalein with ECG,0.25
same,MIC combine,[21]; Baicalein with ECG,8 µg/mL
same,FIC,[21]; Kuraridin with ECG,0.06
same,MIC combine,[21]; Kuraridin with ECG,32 µg/mL
same,MIC90,[21]; Staphylococcus aureus,8 µg/mL
same,MIC99,[21]; [24],> 512 µg/mL
same,MIC,"[21]; Staphylococcus aureus, Baicalein and ECG section",32 µg/mL
same,MIC,"[21]; Staphylococcus aureus, Kuraridin and ECG section",512 µg/mL
same,decrease in the adherence of the WT strain to HaCaT cells,[22]; 64 μg/ml of ECG,1.4 fold
same,percentage of adherence of the bacteria to HaCaT cells,[22]; ECG 4 μg/ml,73.0±4.1%
same,percentage of adherence of the bacteria to HaCaT cells,[22]; ECG 8 μg/ml,75.4±11.0%
same,percentage of adherence of the bacteria to HaCaT cells,[22]; ECG 16 μg/ml,76.4±7.0%
same,percentage of adherence of the bacteria to HaCaT cells,[22]; ECG 32 μg/ml,58.8±8.5%
same,percentage of adherence of the bacteria to HaCaT cells,[22]; ECG 64 μg/ml,52±6.5%
same,MIC,[23]; [26],512 µg/mL
same,FIC,[23]; W113,0.002
same,MIC combine,[23]; W113,1 µg/mL
C=C(C)[C@H](CC=C(C)C)Cc1c(O)cc(OC)c(C(=O)/C=C/c2ccc(O)cc2O)c1O [Kuraridin],MIC alone,[8],8 µg/mL
same,FIC,[8]; ECG with Kur,0.25
same,MIC combine,[8]; ECG with Kur,2 µg/mL
same,FIC,[8]; ECG+Kur+Van,0.25
same,MIC combine,[8]; ECG+Kur+Van,2 µg/mL
same,MIC alone,[8]; Table 5,8 µg/mL
same,MIC alone,[9]; W235,8 µg/mL
same,FIC,[9]; W235,0.5
same,MIC combine,[9]; W235,4 µg/mL
same,MIC alone,[10],8 µg/mL
same,FIC,[10]; ECG with Kur,0.5
same,MIC combine,[10]; ECG with Kur,4 µg/mL
same,FIC,[10]; ECG+Kur+Van,0.25
same,MIC combine,[10]; ECG+Kur+Van,2 µg/mL
same,MIC alone,[10]; Table 5,8 µg/mL
same,MIC alone,[12]; APH2 (gentamicin resistant),8 µg/mL
same,FIC,"[12]; APH2, ECG+Kur+Gen",0.25
same,MIC combine,"[12]; APH2, ECG+Kur+Gen",2 µg/mL
same,FIC,"[12]; APH2, ECG+Kur, no Gen",0.25
same,MIC combine,"[12]; APH2, ECG+Kur, no Gen",2 µg/mL
same,MIC alone,[14],8 µg/mL
same,FIC,[14]; ECG with Kur,0.5
same,MIC combine,[14]; ECG with Kur,4 µg/mL
same,FIC,[14]; ECG+Kur+Van,0.125
same,MIC combine,[14]; ECG+Kur+Van,1 µg/mL
same,MIC alone,[14]; Table 5,8 µg/mL
same,MIC alone,[18]; W106,8 µg/mL
same,FIC,[18]; W106,0.25
same,MIC combine,[18]; W106,2 µg/mL
same,MIC alone,[23]; W113,8 µg/mL
same,FIC,[23]; W113,0.5
same,MIC combine,[23]; W113,4 µg/mL
